Results published in patent publication US12240859B2, “Turbinmicin compounds, compositions and uses thereof” (Wisconsin Alumni Research Foundation, priority 2019, dated 2025).
In brackets after ≈: the same amount, converted by molar mass. Read-outs that look alike come from different tables or passages of the source.

Columns and labels:
C. albicans [1] = test: In vitro MIC susceptibility testing, broth microdilution; format: cell-based, Candida albicans; conditions: Candida albicans
Procedure: (§1) In vitro MIC susceptibility testing. […]. Amphotericin B was used as a positive control and the MICs range were 0.25-1.5 μg/mL. Six untreated media controls were included on each plate. The plates were incubated at 33° C. for 72 h. The MICs were determined as the lowest concentration that inhibited visible growth. The MICs were read at 24, 48, and 72 hours, respectively. […]

C. tropicalis = test: as above; format: cell-based; conditions: Candida tropicalis
Procedure: In vitro MIC susceptibility testing. […] The plates were incubated at 33° C. for 72 h. The MICs were determined as the lowest concentration that inhibited visible growth. The MICs were read at 24, 48, and 72 hours, respectively.

C. auris = test: Time kill experiments; format: cell-based, Candida auris; conditions: C. auris (B11211, FIG. 6A), 1x to 16x MIC, 0-48 h
Procedure: (§2) FIGS. 6A-C show time-kill curves for turbinmicin against (6A) C. auris B11211, (6B) C. albicans K-1, and (6C) C. glabrata 4720.
(§3) Time Kill Experiments. Fresh Candida colonies from an overnight growth were added to normal saline and the turbidity was adjusted to a 0.6 transmittance at 530 nm to provide a standard suspension (1*10^6 CFU/mL). This suspension was diluted with RPMI 1640 medium buffered with MOPS and a standard compound stock solution to achieve a starting inoculum of approximately 10^5 CFU/ml. Each 20 mL culture (RPMI 1640 medium buffered with MOPS) was incubated at 35° C. with constant shaking, and 0.1 mL samples were withdrawn for the determination of fungal counts at 0, 2, 4, 6, 8, 24 and 48 h. Colony counts were determined by viable counts on sabouraud agar plate (SDA) after incubation for 48 h. Growth control for each organism were prepared without antifungal and run in parallel.

A. fumigatus F11628 = test: Neutropenic murine nasal aspiration pneumonia model of invasive pulmonary aspergillosis; format: in vivo, Aspergillus fumigatus
C. albicans [2] = test: Time kill experiments; format: cell-based, Candida albicans; conditions: C. albicans (K-1, FIG. 6B), 1x to 16x MIC, 0-48 h
Procedure: as §2, §3

Rhizopus oryzae = test: In vitro MIC susceptibility testing; format: cell-based; conditions: Rhizopus arrhizus
Procedure: as §1

[3] = test system: Cynninghamella bertholletiae; test: In vitro MIC susceptibility testing; format: cell-based
Procedure: as §1

Scedosporium spp. = test: In vitro MIC susceptibility testing; format: cell-based
Procedure: as §1

Lichteimia corymbiferea = test: In vitro MIC susceptibility testing; format: cell-based
Procedure: as §1

Rhizopus delemar = test: In vitro MIC susceptibility testing; format: cell-based
Procedure: as §1

Mucor circinelloides = test: In vitro MIC susceptibility testing; format: cell-based
Procedure: as §1

Aspergillus fumigatus = test: In vitro MIC susceptibility testing; format: cell-based
Procedure: as §1

Apophysomyces elegans = test: In vitro MIC susceptibility testing; format: cell-based
Procedure: as §1

sheep red blood cells = test: Hemolysis assay; format: cell-based; conditions: 1 h, concentrations exceeding the MIC by 1000-fold
Procedure: Hemolysis Assay. Assays were performed in 384-well plates using sheep blood (0.1% triton as the positive control). Sheep's blood (Ward's Science) was washed with PBS and diluted to a concentration of 6×10^7 red blood cells per ml. A volume of 50 μL of blood was incubated with compound for 1 h, and subsequently pelleted at 4000 rpm for 10 min. Thirty microliters of supernatant were transferred to a clear plate and OD570 was read. An increase in OD indicated the red blood cell lysis and hemolytic activity.

C/C=C/C=C/C=C/C(=O)OC1C=CCC2C(=O)c3c(O)c4c5c(c3OC12)OCOC5CC1C(=O)c2cc(C)[nH]c(=O)c2C(=O)C41O (stereo not drawn) [Turbinmicin, turbinmicin]
MIC (C. albicans [1]; strain 98-17): 0.25 µg/mL (≈ 0.398 µM) | MIC (C. albicans [1]; strain 98-210): 0.25 µg/mL (≈ 0.398 µM) | MIC (C. albicans [1]; strain 580): 0.5 µg/mL (≈ 0.797 µM) | MIC (C. albicans [1]; strain K1 (K-1)): 0.25 µg/mL (≈ 0.398 µM) | MIC (C. albicans [1]; strain SN250): 0.25 µg/mL (≈ 0.398 µM) | MIC (C. tropicalis; ATCC750, strain ATCC 750): 0.25 µg/mL (≈ 0.398 µM) | MIC (C. tropicalis; strain 001): 0.5 µg/mL (≈ 0.797 µM) | MIC (C. tropicalis; strain 98-234): 0.5 µg/mL (≈ 0.797 µM) | MIC (C. tropicalis; strain 1751): 0.25 µg/mL (≈ 0.398 µM) | MIC (C. tropicalis; strain 2597): 0.25 µg/mL (≈ 0.398 µM) | time-kill activity (C. auris): Fungacidal activity was observed | survival (A. fumigatus F11628; mice, 0.25, 0.5 and 1 mg/kg IP every 6 hrs for 4 days, all three dosages): 100% | CE/mL reduction of lung homogenate measured by qPCR (A. fumigatus F11628; mice, dose of 1 mg/kg IP every 6 hrs for 4 days): 1 log 10 CE/mL | time-kill activity (C. albicans [2]): Fungacidal activity was observed | MIC (Rhizopus oryzae): > 8 µg/mL | MIC [3]: > 8 µg/mL | MIC (Scedosporium spp.): 0.5 µg/mL (≈ 0.797 µM) | MIC (Lichteimia corymbiferea): 4 µg/mL (≈ 6.37 µM) | MIC (Rhizopus delemar): 4 µg/mL (≈ 6.37 µM) | MIC (Mucor circinelloides): 4 µg/mL (≈ 6.37 µM) | MIC (Aspergillus fumigatus; strain 293, read-out: MIC): 0.125 µg/mL (≈ 0.199 µM) | MIC (Aspergillus fumigatus; strain F11628 (11628), Cyp51 G138C, triazole resistant): 0.03 µg/mL (≈ 0.0478 µM) | MIC (Aspergillus fumigatus; strain F14403, Cyp51 G54R): 0.25 µg/mL (≈ 0.398 µM) | MIC (Aspergillus fumigatus; strain F14532, Cyp51 M220T): 0.25 µg/mL (≈ 0.398 µM) | MIC (Aspergillus fumigatus; strain F16216, Cyp51 L98H + TR): 0.25 µg/mL | MIC (Apophysomyces elegans): 4 µg/mL (≈ 6.37 µM) | red blood cell toxicity (hemolysis) (sheep red blood cells): did not exhibit red blood cell toxicity
